Measurements: patent US6991794B1, “Progenitor cell preservation factors and methods for and products of their use” (ImClone Systems Incorporated, priority 1997, dated 2006)

Columns and labels:
[1] = single dose 150 mg/kg (Lerner and Harrison); cited from earlier work
[2] = murine 5-FU chemoprotection model; details: 150 mg/kg intraperitoneally
Description: Administration of a second dose of 5-FU (also at 150 mg/kg) 3-7 days after the initial dose killed those stem cells and progenitors recruited into S-phase in response to the first treatment of 5-FU (Lerner and Harrison, supra).
Since FRIL and cytokines act on progenitors in the same concentration range (ng/ml), this pretreatment dose regimen was used to test whether Dl-FRIL can protect mice from 5-FU administered at 2 intervals in the first week: 5-FU (150 mg/kg) was injected at day 0 and then a second dose (also at 150 mg/kg) was injected either on day 3 (d0/3 dose interval) or day 5 (d0/5 dose interval).
Weight-matched BALB/c mice (10 mice/group) were injected intravenously with either with 0.2 mL of Dl-FRIL (500 mg/mL) or 0.2 mL of HBSS daily for 4 days. Two hours after the final treatment of Dl-FRIL, mice were injected intraperitoneally with 5-FU (150 mg/kg). Groups of mice received a second dose of 5-FU (150 mg/kg) at either day 3 or day 5.

Dl-FRIL = biological target: T1, Dl-FRIL (Lablab purpureus, UniProt Q9ZTA9); details: Mo et al., Glycobiology 1999; cited from earlier work
T1 sequence (Q9ZTA9 9-272): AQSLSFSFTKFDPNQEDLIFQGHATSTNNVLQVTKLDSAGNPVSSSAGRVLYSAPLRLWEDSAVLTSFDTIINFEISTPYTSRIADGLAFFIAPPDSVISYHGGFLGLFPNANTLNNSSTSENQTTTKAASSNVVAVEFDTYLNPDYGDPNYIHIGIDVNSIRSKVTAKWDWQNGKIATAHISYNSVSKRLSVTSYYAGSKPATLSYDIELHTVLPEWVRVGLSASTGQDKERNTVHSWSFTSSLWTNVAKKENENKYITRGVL
T1 sequence (Q9ZTA9 125-272 limits assumed): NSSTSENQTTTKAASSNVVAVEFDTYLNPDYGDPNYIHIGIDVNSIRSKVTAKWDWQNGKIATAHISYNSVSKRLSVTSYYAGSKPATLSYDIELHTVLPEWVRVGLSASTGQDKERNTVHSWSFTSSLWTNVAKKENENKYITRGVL

untransfected 3T3 cells = assay: untransfected parent 3T3 control cells (XTT); assay type: cell-based; details: Example 5 serum-free conditions
Description: Specifically, 3T3 cells cultured in tissue culture plates (Becton Dickinson Labware, Lincoln Park, N.J.) were removed from the plates by washing cells twice in Hank's buffered saline solution (HBSS; Gibco Laboratories, Grand Island, N.Y.). Non-enzymatic cell dissociation buffer (Gibco) was added for 15 minutes at room temperature. The resulting cells were washed in medium. FLT3 3T3 cells were cultured at a final concentration of 3,000 cells per well in a volume of 100 μL of serum-defined medium containing […] rhIL1-α, 10% AIMV (Gibco, Grand Island, N.Y.) and 90% Dulbecco's modification of Eagle's medium (DMEM; Gibco) in 96 well plates. […] Proliferation and cell survival was quantitated by addition of XTT (2, 3-bis[Methoxy-4-nitro-5sulfophenyl]-2H-tetrazolium-5 carboxanilide inner salt) (Diagnostic Chemicals Ltd, Charlottetown, Prince Edward Island, Canada), which is a […] cleaved by actively respiring cells (Roehm et al., J. Immunol. Methods 142: 257-265, 1991). Proliferation and cell survival was quantitated spectrophotometrically using a Vmax kinetic plate reader (Molecular Devices Corp., Mountain View, Calif.), and recorded as either relative activity (units/mL) or as specific activity (units/mg). One unit of biological activity was defined as the reciprocal dilution at which half-maximal stimulation of cells is detected. […]

[3] = biological target: T2, full-length human Fms receptor (Homo sapiens, UniProt P07333); assay: Fms 3T3 biological screening assay (XTT); assay type: cell-based
T2 construct: The human FMS 3T3 cell line is a 3T3 cell line transfected with the full-length human Fms receptor; expressed in transfected cells; host or cells: NIH 3T3 (FMS 3T3 cell line, provided by Dr. Charles Sherr)
T2 sequence (P07333 20-972): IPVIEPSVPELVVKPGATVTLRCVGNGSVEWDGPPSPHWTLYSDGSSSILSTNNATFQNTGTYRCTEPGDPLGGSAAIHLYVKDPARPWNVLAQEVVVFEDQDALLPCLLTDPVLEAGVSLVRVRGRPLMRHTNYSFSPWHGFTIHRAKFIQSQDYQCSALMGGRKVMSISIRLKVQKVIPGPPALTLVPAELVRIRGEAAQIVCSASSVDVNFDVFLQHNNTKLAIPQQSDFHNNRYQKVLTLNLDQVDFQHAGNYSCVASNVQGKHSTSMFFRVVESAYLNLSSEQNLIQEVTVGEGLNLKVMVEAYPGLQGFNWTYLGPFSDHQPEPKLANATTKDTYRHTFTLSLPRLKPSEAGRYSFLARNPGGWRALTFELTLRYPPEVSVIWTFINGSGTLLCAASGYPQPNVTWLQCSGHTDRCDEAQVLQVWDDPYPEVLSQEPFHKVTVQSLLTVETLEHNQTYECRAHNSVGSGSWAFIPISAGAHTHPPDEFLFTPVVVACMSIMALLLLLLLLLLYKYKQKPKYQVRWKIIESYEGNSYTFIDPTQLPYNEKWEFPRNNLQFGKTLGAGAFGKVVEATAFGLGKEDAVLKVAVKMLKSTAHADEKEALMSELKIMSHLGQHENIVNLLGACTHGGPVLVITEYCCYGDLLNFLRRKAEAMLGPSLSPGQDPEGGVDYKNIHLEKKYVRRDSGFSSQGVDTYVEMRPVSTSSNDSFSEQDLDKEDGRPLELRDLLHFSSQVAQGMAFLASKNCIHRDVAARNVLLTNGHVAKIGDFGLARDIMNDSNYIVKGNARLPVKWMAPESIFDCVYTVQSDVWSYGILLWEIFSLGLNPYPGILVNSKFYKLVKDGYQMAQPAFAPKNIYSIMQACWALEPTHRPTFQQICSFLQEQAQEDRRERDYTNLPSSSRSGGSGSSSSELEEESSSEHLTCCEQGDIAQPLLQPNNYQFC
From the text: A biological screening assay to search for novel stimulators of the Flt3 receptor was developed using NIH 3T3 cells transfected with expression vectors containing cDNA of murine and human Flt3 and the related Fms receptor. The mFlt3/Fms 3T3 cell line is a 3T3 cell line transfected with nucleic acid encoding a fusion protein consisting of the murine extracellular domain of the Flt3 receptor fused to the transmembrane and intracellular domains of the human Fms (provided by Dr. Ihor Lemischka, Princeton University, Princeton, N.J.). The Stk 3T3 cell line is a 3T3 cell line transfected with the full-length human Flt3 receptor (provided by Dr. Donald Small, Johns Hopkins University, Baltimore, Md.). […]
To create factor-dependence for receptor-transfected 3T3 cells, growth conditions were compromised to permit only ligands to rescue cells from death. […] Viable cells were quantitated after 3-5 days by XTT (2,3-bis[Methoxy-4-nitro-5sulfophenyl]-2H-tetrazolium-5 carboxanilide inner salt) (Sigma, St. Louis, Mo.) (Roehm et al., supra). Relative activity (units/ml) and specific activity (units/mg) are defined as the reciprocal dilution at which half-maximal stimulation of cells was detected. […]

[4] = biological target: T3, murine extracellular domain of the Flt3 receptor fused to the transmembrane and intracellular domains of the human Fms (UniProt P07333+Q00342, A795S/A899S/C564L/C654D/C793H/C831G/D601N/D652H/D673E/D898N/DEL545-556/DEL576-597/DEL711-780/E609N/E612Q/E649S/E789R/E803A/E806A/E865D/F571P/F692T/F788L/F807S/G637D/G866C/H565Y/H671Q/H824N/I560L/I563L/I633L/I640L/I867V/I870V/INS558VACMSIMALLLL/INS573QVRWKII/INS599GNSYTFIDPTQLP/INS709AMLGPSLSPGQDPEGGVDYKNIHLEKKYVRRDSGFSSQGVDTYVEMRPVSTSSNDSFSEQDLD/K569Q/K650T/K800Q/K826H/K871Q/L602E/L684H/L690V/L783G/L815V/L840M/L863I/M626V/M665I/N627E/N784R/N900K/P896L/Q570K/Q641K/R572K/R624K/R708A/R848K/S619A/S634G/S639V/S653A/S685G/S706R/S809N/S841N/S844N/T636E/T667S/T787E/V561L/V616T/V638A/V785P/V811I/V822L/V828A/V846I/V889L/Y631F/Y689L/Y703F/Y796S); assay: mFlt3/Fms 3T3 biological screening assay (XTT); assay type: cell-based
T3 construct: consisting of the murine extracellular domain of the Flt3 receptor fused to the transmembrane and intracellular domains of the human Fms; expressed in transfected cells; host or cells: NIH 3T3 (mFlt3/Fms 3T3 cell line, provided by Dr. Ihor Lemischka)
T3 sequence (Q00342+P07333 with tags, fused parts or gaps Q00342:DEL545-556/Q00342:INS558VACMSIMALLLL/Q00342:I560L/Q00342:V561L/Q00342:I563L/Q00342:C564L/Q00342:H565Y/Q00342:K569Q/Q00342:Q570K/Q00342:F571P/Q00342:R572K/Q00342:INS573QVRWKII/Q00342:DEL576-597/Q00342:INS599GNSYTFIDPTQLP/Q00342:D601N/Q00342:L602E/Q00342:E609N/Q00342:E612Q/Q00342:V616T/Q00342:S619A/Q00342:R624K/Q00342:M626V/Q00342:N627E/Q00342:Y631F/Q00342:I633L/Q00342:S634G/Q00342:T636E/Q00342:G637D/Q00342:V638A/Q00342:S639V/Q00342:I640L/Q00342:Q641K/Q00342:E649S/Q00342:K650T/Q00342:D652H/Q00342:S653A/Q00342:C654D/Q00342:M665I/Q00342:T667S/Q00342:H671Q/Q00342:D673E/Q00342:L684H/Q00342:S685G/Q00342:Y689L/Q00342:L690V/Q00342:F692T/Q00342:Y703F/Q00342:S706R/Q00342:R708A/Q00342:INS709AMLGPSLSPGQDPEGGVDYKNIHLEKKYVRRDSGFSSQGVDTYVEMRPVSTSSNDSFSEQDLD/Q00342:DEL711-780/Q00342:L783G/Q00342:N784R/Q00342:V785P/Q00342:T787E/Q00342:F788L/Q00342:E789R/Q00342:C793H/Q00342:A795S/Q00342:Y796S/Q00342:K800Q/Q00342:E803A/Q00342:E806A/Q00342:F807S/Q00342:S809N/Q00342:V811I/Q00342:L815V/Q00342:V822L/Q00342:H824N/Q00342:K826H/Q00342:V828A/Q00342:C831G/Q00342:L840M/Q00342:S841N/Q00342:S844N/Q00342:V846I/Q00342:R848K/Q00342:L863I/Q00342:E865D/Q00342:G866C/Q00342:I867V/Q00342:I870V/Q00342:K871Q/Q00342:V889L/Q00342:P896L/Q00342:D898N/Q00342:A899S/Q00342:N900K): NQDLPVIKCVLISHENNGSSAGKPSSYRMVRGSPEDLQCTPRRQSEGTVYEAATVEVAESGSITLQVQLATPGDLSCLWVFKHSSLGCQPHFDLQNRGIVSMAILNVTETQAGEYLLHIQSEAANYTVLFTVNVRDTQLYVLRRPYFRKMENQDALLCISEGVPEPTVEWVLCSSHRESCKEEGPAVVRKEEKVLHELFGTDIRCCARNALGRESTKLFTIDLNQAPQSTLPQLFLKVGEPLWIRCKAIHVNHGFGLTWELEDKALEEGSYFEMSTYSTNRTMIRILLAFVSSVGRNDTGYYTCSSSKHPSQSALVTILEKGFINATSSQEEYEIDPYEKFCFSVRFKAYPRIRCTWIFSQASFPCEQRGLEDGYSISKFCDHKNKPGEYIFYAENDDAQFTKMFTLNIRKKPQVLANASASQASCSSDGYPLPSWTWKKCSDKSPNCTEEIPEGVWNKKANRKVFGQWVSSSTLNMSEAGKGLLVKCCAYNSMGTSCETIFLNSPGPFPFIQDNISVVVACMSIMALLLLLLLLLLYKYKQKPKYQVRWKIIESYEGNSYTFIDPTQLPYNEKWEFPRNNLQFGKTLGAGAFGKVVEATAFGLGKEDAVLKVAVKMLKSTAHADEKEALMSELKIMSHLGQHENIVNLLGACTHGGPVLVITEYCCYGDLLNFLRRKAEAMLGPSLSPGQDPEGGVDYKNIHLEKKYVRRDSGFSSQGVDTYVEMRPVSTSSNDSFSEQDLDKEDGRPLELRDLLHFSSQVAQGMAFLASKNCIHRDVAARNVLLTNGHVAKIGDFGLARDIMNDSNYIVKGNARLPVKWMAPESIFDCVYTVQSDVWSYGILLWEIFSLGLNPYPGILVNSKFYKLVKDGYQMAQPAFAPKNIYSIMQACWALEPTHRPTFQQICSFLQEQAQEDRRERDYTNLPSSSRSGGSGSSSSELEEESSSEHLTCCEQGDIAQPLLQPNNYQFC
From the text: A biological screening assay to search for novel stimulators of the Flt3 receptor was developed using NIH 3T3 cells transfected with expression vectors containing cDNA of murine and human Flt3 and the related Fms receptor. The mFlt3/Fms 3T3 cell line is a 3T3 cell line transfected with nucleic acid encoding a fusion protein consisting of the murine extracellular domain of the Flt3 receptor fused to the transmembrane and intracellular domains of the human Fms (provided by Dr. Ihor Lemischka, Princeton University, Princeton, N.J.). The Stk 3T3 cell line is a 3T3 cell line transfected with the full-length human Flt3 receptor (provided by Dr. Donald Small, Johns Hopkins University, Baltimore, Md.). The human FMS 3T3 cell line is a 3T3 cell line transfected with the full-length human Fms receptor (provided by Dr. Charles Sherr, Saint Jude Children's Research Hospital, Memphis, Tenn. Parent 3T3 cells were purchased from American Type Culture Collection (“ATCC”; Manassas, Va.). Receptor-transfected cells contained Neo resistance genes and were maintained in medium containing 750 µg/ml of G418 (Life Technologies, Rockville, Md.).
To create factor-dependence for receptor-transfected 3T3 cells, growth conditions were compromised to permit only ligands to rescue cells from death. To do this, 3T3 cell lines were assayed in 96 well plates (Becton Dickinson Labware, Lincoln Park, N.J.) containing 3,000 cells in 100 μL of serum-free medium consisting of 10% AIMV (Life Technologies) and 90% DMEM. In each experiment, samples were serially diluted two-fold across rows starting at a 1:10 dilution. Viable cells were quantitated after 3-5 days by XTT (2,3-bis[Methoxy-4-nitro-5sulfophenyl]-2H-tetrazolium-5 carboxanilide inner salt) (Sigma, St. Louis, Mo.) (Roehm et al., supra). Relative activity (units/ml) and specific activity (units/mg) are defined as the reciprocal dilution at which half-maximal stimulation of cells was detected.

O=c1[nH]cc(F)c(=O)[nH]1 [5-FU, 5-fluorouracil]
reduction of bone marrow cellularity [1]: > 90% | deaths from a single dose [2]: No mice died

OC[C@H]1O[C@H](O[C@H]2O[C@H](CO)[C@@H](O)[C@H](O)[C@H]2O)[C@H](O)[C@@H](O)[C@@H]1O [α,α-trehalose]
potency relative to mannose (Dl-FRIL): 3.6 fold

B1: M-CSF: Recombinant human M-CSF, ligand of the Fms receptor (protein)
chain: EEVSEYCSHMIGSGHLQSLQRLIDSQMETSCQITFEFVDQEQLKDPVCYLKKAFLLVQDIMEDTMRFRDNTPNAIAIVQLQELSLRLKSCFTKDYEEHDKACVRTFYETPLQLLEKVKNVFNETKNLLDKDWNIFSKNCNNSFAECSSQDVVTKPDCN
response of parent untransfected 3T3 cells (untransfected 3T3 cells): Neither the mFlt3/Fms 3T3 cells nor the parent untransfected 3T3 cells responded | response of Fms 3T3 cells [3]: responded to M-CSF in a dose-responsive manner | response of mFlt3/Fms 3T3 cells [4]: Neither the mFlt3/Fms 3T3 cells nor the parent untransfected 3T3 cells responded
